From patent publication US6958340B2, “Tyrosine kinase inhibitors” (Merck & Co., Inc., priority 2001, dated 2005)

melting point: 183 °C
Compound: Cc1cc(C)cc(Nc2nccc(-n3ccnc3-c3ccccc3)n2)c1 [Compound 1-24, N-(3,5-dimethylphenyl)-4-(2-phenyl-1H-imidazol-1-yl)pyrimidin-2-amine]
